Read-outs that look alike come from different tables or passages of the source.

This assay has as its system A2780 ovarian cells. Briefly: A2780 Ovarian Cell Proliferation Assay in Lipid Reduced Medium, with and without Palmitate (MTT). It is filed as cell-based. The note with it: Homo sapiens, 10% lipid-reduced serum, 96 h. On the procedure: The biological assays described below correspond to comparative assays for ovarian cell proliferation.
2500 cells were seeded in a 96-well clear well plate in 200 μL RPM11640 with 10% Fetal Calf Serum (Hyclone), and incubated at 37° C., 5% CO2, Blanks were wells without cells. The next day the culture medium was aspirated and replaced by 160 μL culture medium with 10% Lipid-Reduced Serum (LRS, Hyclone). […] After 96 h incubation, an MTT assay was performed.
2500 cells were seeded in a 96-well clear well plate in 200 μL RPM11640 with 10% Fetal Calf Serum (Hyclone), and incubated at 37° C., 5% CO2. Blanks were wells without cells. The next day the culture medium was aspirated and replaced by 160 μL culture medium with 10% Lipid-Reduced Serum (LRS, Hyclone). 20 μL test compound (at concentrations of 30 μM, 10 μM, 3 μM, 1 μM, 0.30 μM, 0.10 μM, 0.03 μM and 0.01 μM)/DMSO dilution followed by 20 μL ethanol-BSA solution were added to a final concentrations of 0.2% DMSO, 0.2% fatty-acid-free BSA, 0.25% ethanol. After 96 h incubation an MTT assay was performed.
Raw data generated by the instrument were normalized to % Controlmin values, which were calculated as: % Controlmin=100*(x−mLC)/(mHC−mLC)
where mLC and mHC were the means of the low control wells and high control wells on the plate, after manual exclusion of outliers. A plot of Controlmin versus test compound concentration was fitted to a 4-parameter logistic curve using a non-linear least squares regression method.

The mark [1] stands for this setting: 25 μM palmitate added (control), read-out: pIC50 With Palmitate (converted).
Where [2] appears, read: no palmitate, read-out: pIC50 Without Palmitate (converted).

Consider `Cc1cc(-c2ccc3c(c2)ncn3C)ccc1C1=NC(C)(C)C(=O)N1C[C@@H]1CCN(C(=O)C2(O)CC2)C1` [Compound 92, (R)-1-((1-(1-hydroxycyclopropanecarbonyl)pyrrolidin-3-yl)methyl)-4,4-dimethyl-2-(2-methyl-4-(1-methyl-1H-benzo[d]imidazol-5-yl)phenyl)-1H-imidazol-5(4H)-one], for which the IC50 under setting [1] is more than 10000 nM and the IC50 under setting [2] was approximately 5.5 nM.

Consider `Cn1cc(-c2ccc(-c3ccc(C4=NC(C)(C)C(=O)N4C[C@@H]4CCN(C(=O)C5(O)CC5)C4)c(F)c3)cc2)cn1` [Compound 95, (R)-2-(3-fluoro-4′-(1-methyl-1H-pyrazol-4-yl)-[1,1′-biphenyl]-4-yl)-1-((1-(1-hydroxycyclopropanecarbonyl)pyrrolidin-3-yl)methyl)-4,4-dimethyl-1H-imidazol-6(4H)-one], for which the IC50 by setting is: under setting [1], more than 10000 nM; under setting [2], approximately 5.37 nM.

As for `CC1(C)N=C(c2ccc(-c3n[nH]c4ccccc34)cc2)N(CC2CN(C(=O)C3CC3)C2)C1=O` [Compound 99, 2-(4-(1H-indazol-3-yl)phenyl)-1-((1-(cyclopropanecarbonyl)azetidin-3-yl)methyl)-4,4-dimethyl-1H-imidazol-5(4H)-one], the IC50 was more than 10000 nM under setting [1] and more than 10000 nM under setting [2].

Regarding `Cn1ncc2cc(-c3ccc(C4=NC(C)(C)C(=O)N4C[C@@H]4CCN(C(=O)C5(O)CC5)C4)c(F)c3)ccc21` [Compound 76, (R)-2-(2-fluoro-4-(1-methyl-1H-indazol-5-yl)phenyl)-1((1-(1-hydroxycyclopropanecarbonyl)pyrrolidin-3-yl)methyl)-4,4-dimethyl-1H-imidazol-5(4H)-one], the IC50 was more than 10000 nM under setting [1] and 23.4 nM under setting [2].

Take `CC1(C)N=C(c2ccc(-c3ccc4[nH]ccc4c3)cc2)N(C[C@@H]2CCN(C(=O)C3CC3)C2)C1=O` [Compound 1, (R)-2-(4-(1H-Indol-5-yl)phenyl)-1-((1-(cyclopropanecarbonyl)pyrrolidin-3-yl)methyl)-4,4-dimethyl-1H-imidazol-5(4H)-one]: the IC50 was more than 10000 nM under setting [1] and 74.1 nM under setting [2].

As for `Cc1cc(-c2ccc3c(c2)ncn3C)ccc1C1=NC(C)(C)C(=O)N1CC1CN(C(=O)C2(O)CC2)C1` [Compound 91, 1-((1-(1-hydroxycyclopropanecarbonyl)azetidin-3-yl)methyl)-4,4-dimethyl-2-(2-methyl-4-(1-methyl-1H-benzo[d]imidazol-5-yl)phenyl)-1H-imidazol-5(4H)-one], the IC50 runs as follows: under setting [1], more than 10000 nM; under setting [2], 129 nM.

Regarding `Cc1cc(-c2ccc3cc(C#N)ccc3c2)ccc1C1=NC(C)(C)C(=O)N1CC1CN(C(=O)C2CC2)C1` [Compound 96, 6-(4-(1-((1-(cyclopropanecarbonyl)azetidin-3-yl)methyl)-4,4-dimethyl-5-oxo-4,5-dihydro-1H-imidazol-2-yl)-3-methylphenyl)-2-naphthonitrile], the IC50 is more than 10000 nM under setting [1] and approximately 22.4 nM under setting [2].

Regarding `CC1(C)N=C(c2ccc(-c3ccc4ncccc4c3)cc2)N(CC2CN(C(=O)C3CC3)C2)C1=O` [Compound 98, 1-((1-(cyclopropanecarbonyl)azetidin-3-yl)methyl)-4,4-dimethyl-2-(4-(quinolin-6-yl)phenyl)-1H-imidazol-5(4H)-one], the IC50 was more than 10000 nM under setting [1] and more than 10000 nM under setting [2].

`Cn1ncc2cc(-c3ccc(C4=NC(C)(C)C(=O)N4C[C@@H]4CCN(C(=O)C5CC5)C4)cc3)ccc21` [Compound 2, (R)-1-((1-(cyclopropanecarbonyl)pyrrolidin-3-yl)methyl)-4,4-dimethyl-2-(4-(1-methyl-1H-indazol-5-yl)phenyl)-1H-imidazol-5(4H)-one]: the IC50 runs as follows: under setting [1], more than 10000 nM; under setting [2], 525 nM.

In the case of `CC1(C)N=C(c2ccc(-c3ccc4ncccc4c3)cc2)N(C[C@@H]2CCN(C(=O)C3CC3)C2)C1=O` [Compound 64, (R)-1-((1-(cyclopropanecarbonyl)pyrrolidin-3-yl)methyl)-4,4-dimethyl-2-(4-(quinolin-6-yl)phenyl)-1H-imidazol-5(4H)-one], the IC50 runs as follows: under setting [1], more than 10000 nM; under setting [2], 4470 nM.

Take `CC1(C)N=C(c2ccc(-c3ccc4cc(F)ccc4c3)cc2F)N(C[C@@H]2CCN(C(=O)C3(O)CC3)C2)C1=O` [Compound 88, (R)-2-(2-fluoro-4-(6-fluoronaphthalen-2-yl)phenyl)-1-((1-(1-hydroxycyclopropanecarbonyl)pyrrolidin-3-yl)methyl)-4,4-dimethyl-1H-imidazol-5(4H)-one]: the IC50 under setting [1] is more than 10000 nM and the IC50 under setting [2] is approximately 14.8 nM.

For `Cn1cnc2cc(-c3ccc(C4=NC(C)(C)C(=O)N4CC4CN(C(=O)C5(C)CC5)C4)c(F)c3)ccc21` [Compound 93, 2-(2-fluoro-4-(1-methyl-1H-benzo[d]imidazol-5-yl)phenyl)-4,4-dimethyl-1-((1-(1-methylcyclopropanecarbonyl)azetidin-3-yl)methyl)-1H-imidazol-5(4H)-one], the IC50 under setting [1] is more than 10000 nM and the IC50 under setting [2] is 30.9 nM.

For `Cn1cnc2cc(-c3ccc(C4=NC(C)(C)C(=O)N4CC4CN(C(=O)C5(O)CC5)C4)c(F)c3)ccc21` [Compound 94, 2-(2-fluoro-4-(1-methyl-1H-benzo[d]imidazol-5-yl)phenyl)-1-((1-(1-hydroxycyclopropanecarbonyl)azetidin-3-yl)methyl)-4,4-dimethyl-1H-imidazol-5(4H)-one], the IC50 under setting [1] is more than 10000 nM and the IC50 under setting [2] was 100 nM.

For `CC1(C)N=C(c2ccc(-c3ccc4occc4c3)cc2)N(C[C@@H]2CCN(C(=O)C3(F)CC3)C2)C1=O` [Compound 4, (R)-2-(4-(benzofuran-5-yl)phenyl)-1-((1-(1-fluorocyclopropanecarbonyl)pyrrolidin-3-yl)methyl)-4,4-dimethyl-1H-imidazol-5(4H)-one], the IC50 reads like this: under setting [1], more than 10000 nM; under setting [2], 2750 nM.

With `CC1(C(=O)N2CC[C@@H](CN3C(=O)C(C)(C)N=C3c3ccc(-c4ccc5cc(F)ccc5c4)cc3F)C2)CC1` [Compound 75, (R)-2-(2-fluoro-4-(6-fluoronaphthalen-2-yl)phenyl)-4,4-dimethyl-1-((1-(1-methylcyclopropanecarbonyl)pyrrolidin-3-yl)methyl)-1H-imidazol-5(4H)-one], the IC50 reads like this: under setting [1], 3310 nM; under setting [2], 11 nM.

Consider `Cn1cnc2cc(-c3ccc(C4=NC(C)(C)C(=O)N4C[C@@H]4CCN(C(=O)C5(C)CC5)C4)c(F)c3)ccc21` [Compound 90, (R)-2-(2-fluoro-4-(1-methyl-1H-benzo[d]imidazol-5-yl)phenyl)-4,4-dimethyl-1-((1-(1-methylcyclopropanecarbonyl)pyrrolidin-3-yl)methyl)-1H-imidazol-5(4H)-one], for which the IC50 by setting is: under setting [1], more than 10000 nM; under setting [2], approximately 2.95 nM.

For `CC1(C)N=C(c2ccc(-c3ccc4occc4c3)cc2)N(C[C@@H]2CCN(C(=O)C3CC3)C2)C1=O` [Compound 3, (R)-2-(4-(benzofuran-5-yl)phenyl)-1-((1-(cyclopropanecarbonyl)pyrrolidin-3-yl)methyl)-4,4-dimethyl-1H-imidazol-5(4H)-one], the IC50 reads like this: under setting [1], more than 10000 nM; under setting [2], 1480 nM.

As to `Cn1cnc2cc(-c3ccc(C4=NC(C)(C)C(=O)N4C[C@@H]4CCN(C(=O)C5(O)CC5)C4)c(F)c3)ccc21` [Compound 89, (R)-2-(2-fluoro-4-(1-methyl-1H-benzo[d]imidazol-5-yl)phenyl)-1-((1-(1-hydroxycyclopropanecarbonyl)pyrrolidin-3-yl)methyl)-4,4-dimethyl-1H-imidazol-5(4H)-one], the IC50 was more than 10000 nM under setting [1] and 6.76 nM under setting [2].

(Values after patent US10413545B2, “Imidazolin-5-one derivative useful as FASN inhibitors for the treatment of cancer” (Janssen Pharmaceutica NV, priority 2013, dated 2019).)
